# In article PMC4861903, “Synthesis of a highly water-soluble acacetin prodrug for treating experimental atrial fibrillation in beagle dogs” (Scientific Reports, 2016):
# Legend:
# [1] = target: T1, hKv1.5 current (IKur, KCN5A) (Homo sapiens, UniProt P22460); experiment: Whole-cell patch clamp of hKv1.5 current in HEK 293 cells; type: cell-based; conditions: 30 μM, at +50 mV, n = 5
# T1 construct: expressed in transfected cells
# Protocol: Whole-cell currents of hKv1.5 and hKv4.3 were recorded in established HEK 293 cell lines stably expressing hKv1.5 (KCN5A) and hKv4.3 (KCND3) and IKACh was determined in isolated rat atrial myocytes as described previously[12][31][32] and in Supplemental Materials. […]
# Effects of acacetin prodrug on cardiac potassium currents
# Whole-cell currents of hKv1.5 and hKv4.3 were recorded in established HEK 293 cell lines stably expressing hKv1.5 (KCN5A) and hKv4.3 (KCND3).1, 2 The cells were cultured in Dulbecco’s modified eagle’s medium (DMEM, Invitrogen, Hong Kong) supplemented with 10% fetal bovine serum and 400 µg/mL G418. Cells on a coverslip were transferred to an open cell chamber (0.5 ml) mounted on the stage of an inverted microscope and superfused with Tyrode’s solution at 2 mL/min. The whole cell patch-clamp technique was used as described previously.1, 2 The whole-cell membrane currents were measured using an EPC-10 amplifier and Pulse software (Heka Elektronik, Lambrecht, Germany). Borosilicate glass electrodes (1.2-mm OD) were pulled with a Brown/Flaming puller (model P-97, Sutter Instrument, Nato, CA) and had resistances of 1.5~2.5 MΩ when filled with the pipette solution. A 3-M KCl agar bridge was used as the reference electrode. The tip potential was zeroed before the patch pipette contacted the cell. […]
# [2] = tested on: QTc interval; experiment: ECG QTc interval in anesthetized beagle dogs; type: in vivo; conditions: for QTc interval after drug administration: at 35 min after administration, P = NS
# Protocol: QTc (corrected QT) interval of ECG was analyzed in anesthetized beagle dogs before and at 35 min after drug administration. QTc interval was not altered (P = NS, before vs. after drug administration) in vehicle animals (n = 5, 273.6 ± 2.6 ms vs. 276.1 ± 4.2 ms) and animals treated with 3 mg/kg (n = 6, 279.5 ± 2.5 ms vs. 282.3 ± 1.7 ms), 6 mg/kg (n = 8, 276.9 ± 2.4 ms vs. 279.1 ± 2.3 ms), or 12 mg/kg (n = 7, 274.1 ± 3.5 ms vs. 278.7 ± 2.9 ms) acacetin prodrug. […]
# (§1) China) were anesthetized with pentobarbital (40 mg/kg, i.v.), supplemented as necessary during the experiment. The animal was kept on an operation table maintained at 37°C, intubated and ventilated with room air. The left femoral vein was cannulated to maintain fluid balance, anesthesia, and test articles. Lead II electrocardiogram (ECG) was continuously monitored with using a digital recording system (RM6240, Chengdu Instruments, China)
# (§2) An action potential (MAP) recording- and pacing-catheter (Boston Scientific Ltd) was introduced to the right atrium through right jugular vein, and an electrical pacing catheter was introduced to left ventricle via […] for ventricular pacing (when necessary).
# Bilateral cervical vagal nerves were isolated and bipolar electrodes were placed to stimulate efferent vagal nerves with 15 Hz, 0.2 ms duration voltage step (80-100% threshold) to induce a 50% reduction of heart rate. Ventricular pacing was performed with 2-ms voltage pulses (2.5 Hz, 150% diastolic threshold) when vagal nerves were continuously stimulated. […]
# (§3) Instruments, China). […]
# [3] = tested on: experimental AF induced by vagal nerve stimulation and burst atrial pacing; experiment: Vagal nerve stimulation-induced AF in beagle dogs; type: in vivo; conditions: for AF duration in animals with effective AF termination: vehicle 30 min
# Protocol: The anti-AF effect of acacetin prodrug was investigated in AF model (with AF duration of 30 min), which was established in beagle dogs with modified procedure as described previously. After three-repeats of stable AF (30 min), drug treatment was applied on 4th repeat (Fig. 5A). Acacetin prodrug dissolved in 5% glucose was administrated intravenously after 1 min of onset of AF induction. A bolus of one third dosage was infused within 2 min, then two third of the dosage (3, 6, and 12 mg/kg) was continuously infused for 18 min. The AF disappeared within 30 min before stopping bilateral vagal nerve stimulation was considered to be effective termination of AF (Fig. 5B). Blood samples were collected at different time points (5, 10, 20, 30, 45 and 60 min) during the experiment to determine the plasma acacetin concentrations. Figure 5C illustrates the termination rate of AF by different doses of acacetin prodrug. […] In addition, AF induction was repeated at 40 min after discontinuous prodrug infusion. AF was terminated at 25.3 ±1.8 min after re-induction (P < 0.01 vs. vehicle) in these animals (n = 15) with drug treatment, but not in animals treated with 5% glucose vehicle (30 min duration). However, the duration of AF was longer than during the initial drug administration (25.3 ± 1.8 min vs.17.1 ± 1.3 min, P < 0.01).
# Experimental AF was induced by vagal nerve stimulation in beagle dogs with modified procedure as described previously. Briefly, AF was generated by a 10-s burst atrial pacing with a 4-fold diastolic threshold potential (60-ms interval) after 30 s vagal nerve stimulation. If AF persisted for 30 min, it was terminated by stopping vagal nerve stimulation. The stable AF lasting for 30 min was repeated for three times (20 min interval), drug test (vehicle or different doses of acacetin prodrug) was then performed. A shortened duration of AF during the continuous vagal nerve stimulation was considered to be effective termination of AF for drug treatment. […]
# as §1, §2
# Bilateral cervical vagal nerves were isolated and bipolar electrodes were placed to stimulate efferent vagal nerves with 15 Hz, 0.2 ms duration voltage step (80-100% threshold) to induce a 50% reduction of heart rate. Ventricular pacing was performed with 2-ms voltage pulses (2.5 Hz, 150% diastolic threshold) when vagal nerves were continuously stimulated. Experimental atrial fibrillation (AF) model is established in beagle dogs with modified procedure as described previously.8-10 Briefly, AF was generated by a 10-s burst atrial pacing with a 4-fold diastolic threshold potential (60 ms interval) after 30 s vagal nerves stimulation. If AF persisted for 30 min, AF was terminated by stopping vagal nerve stimulation. After stable persistent AF lasing for 30 min was repeated for three times (20 min interval), drug test (vehicle or different doses of phosphate sodium salt prodrug of acacetin) was performed. A shortened AF duration during the continuous vagal stimulation was considered to be effective termination of AF. All the biological signals were recorded using the digital recording system (RM6240, Chengdu […]
# as §3
# Sixty ICR mice (male, 30; female, 30) were stratified […]
# T1 sequence (P22460 whole entry): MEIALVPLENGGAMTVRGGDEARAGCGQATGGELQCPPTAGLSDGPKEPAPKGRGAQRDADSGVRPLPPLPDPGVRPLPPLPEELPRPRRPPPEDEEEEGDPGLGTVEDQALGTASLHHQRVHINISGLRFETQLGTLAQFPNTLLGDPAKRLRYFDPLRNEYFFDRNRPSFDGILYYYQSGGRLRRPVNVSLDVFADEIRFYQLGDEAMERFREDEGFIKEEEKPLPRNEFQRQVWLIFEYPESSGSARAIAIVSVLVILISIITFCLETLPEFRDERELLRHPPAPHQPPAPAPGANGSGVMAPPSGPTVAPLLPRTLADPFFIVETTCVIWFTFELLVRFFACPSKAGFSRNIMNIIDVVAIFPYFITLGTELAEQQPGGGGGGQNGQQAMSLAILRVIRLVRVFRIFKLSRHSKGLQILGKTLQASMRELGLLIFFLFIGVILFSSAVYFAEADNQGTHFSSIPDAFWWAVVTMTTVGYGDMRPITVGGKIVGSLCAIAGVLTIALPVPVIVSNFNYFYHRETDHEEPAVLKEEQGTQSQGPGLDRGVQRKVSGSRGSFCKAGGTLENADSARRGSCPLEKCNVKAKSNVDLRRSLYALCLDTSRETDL
structure (smiles),measurement,setting,value
"COc1ccc(-c2cc(=O)c3c(O)cc(OP(=O)([O-])[O-])cc3o2)cc1.[Na+].[Na+] [acacetin prodrug, phosphate sodium salt of acacetin]",inhibition of hKv1.5 current,[1],no significant inhibition
same,QTc interval after drug administration,"[2]; 3 mg/kg i.v., n = 6, before 279.5 ± 2.5 ms",282.3 ± 1.7 ms
same,QTc interval after drug administration,"[2]; 6 mg/kg i.v., n = 8, before 276.9 ± 2.4 ms",279.1 ± 2.3 ms
same,QTc interval after drug administration,"[2]; 12 mg/kg i.v., n = 7, before 274.1 ± 3.5 ms",278.7 ± 2.9 ms
same,effect on QT interval,"[2]; 3, 6 and 12 mg/kg i.v., beagle dogs",no effect
same,termination rate of AF,"[3]; 3 mg/kg i.v. (1/3 bolus in 2 min, 2/3 infused 18 min), 3 of 6 dogs, vehicle 0%",50%
same,termination rate of AF,"[3]; 6 mg/kg i.v. (1/3 bolus in 2 min, 2/3 infused 18 min), 6 of 8 dogs, P < 0.05 vs. vehicle",75%
same,AF duration in animals with effective AF termination,[3]; 6 mg/kg i.v.,17.2 ± 2.3 min
same,termination rate of AF,"[3]; 12 mg/kg i.v. (1/3 bolus in 2 min, 2/3 infused 18 min), 5 of 7 dogs, P < 0.05 vs. vehicle",71.4%
same,AF duration in animals with effective AF termination,[3]; 12 mg/kg i.v.,15.5 ± 2.7 min
same,"AF terminated at, after re-induction","[3]; AF induction repeated at 40 min after discontinuous prodrug infusion, all doses pooled, n = 15, P < 0.01 vs. vehicle (30 min)",25.3 ± 1.8 min
same,duration of AF during the initial drug administration,"[3]; all doses pooled, animals with drug treatment",17.1 ± 1.3 min
